Laboratory results as given in patent US7348427B2, “Antipathogenic benzamide compounds” (Genesoft Pharmaceuticals, Inc., priority 2001, dated 2008).

Assays:
[1] = tested on: Staphylococcus aureus (ATCC 13709, a methicillin sensitive strain (MSSA)); test: MIC, NCCLS broth microdilution assay; format: cell-based; conditions: E = S. aureus ATCC 13709
Procedure, shortened: (§1)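 NCCLS-standard broth microdilution gives the MIC values here. The antifungal determination used a clinical microbiology manual method instead.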

[2] = tested on: Bacillus cereus (ATCC 11778); test: MIC, NCCLS broth microdilution assay; format: cell-based; conditions: A = B. cereus ATCC 11778
Procedure, shortened: as §1

[3] = tested on: Staphylococcus aureus (ATCC 27660, a methicillin resistant strain (MRSA)); test: MIC, NCCLS broth microdilution assay; format: cell-based; conditions: F = S. aureus ATCC 27660
Procedure, shortened: as §1

[4] = tested on: Staphylococcus epidermidis (ATCC 12228); test: MIC, NCCLS broth microdilution assay; format: cell-based; conditions: G = S. epidermidis ATCC 12228
Procedure, shortened: as §1

[5] = tested on: Streptococcus pneumoniae (ATCC 51422, a penicillin resistant strain (PRSP)); test: MIC, NCCLS broth microdilution assay; format: cell-based; conditions: I = S. pneumoniae ATCC 51422
Procedure, shortened: as §1

[6] = tested on: Enterococcus faecium (ATCC 51559, a vancomycin resistant strain (VRE)); test: MIC, NCCLS broth microdilution assay; format: cell-based; conditions: D = E. faecium ATCC 51559
Procedure, shortened: as §1

S. pneumoniae ATCC 49619 = test: MIC, NCCLS broth microdilution assay; format: cell-based, Streptococcus pneumoniae; conditions: H = S. pneumoniae ATCC 49619
Procedure, shortened: (§2)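 Broth microdilution per NCCLS M7-A4 (1997) guidelines; MIC recorded as minimal inhibitory concentration.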

[7] = tested on: Candida albicans (ATCC 38247); test: Antifungal MIC assay; format: cell-based; conditions: B = C. albicans ATCC 38247
Procedure, shortened: as §1

E. faecalis ATCC 29212 = test: MIC, NCCLS broth microdilution assay; format: cell-based, Enterococcus faecalis; conditions: C = E. faecalis ATCC 29212
Procedure, shortened: as §2

Structure (SMILES): Cn1cc(NC(=O)c2cc(NC(=O)c3cc(NC(=O)c4ccc(F)cc4F)cn3C)cn2C)cc1C(=O)NCCc1cccnc1 [Compound B-24]
- Minimum Inhibitory Concentration (MIC) [1]: +++ (+++ = MIC ≦ 4)
- Minimum Inhibitory Concentration (MIC) [2]: +++ (+++ = MIC ≦ 4)
- Minimum Inhibitory Concentration (MIC) [3]: +++ (+++ = MIC ≦ 4)
- Minimum Inhibitory Concentration (MIC) [4]: +++ (+++ = MIC ≦ 4)
- Minimum Inhibitory Concentration (MIC) [5]: +++ (+++ = MIC ≦ 4)
- Minimum Inhibitory Concentration (MIC) [6]: +++ (+++ = MIC ≦ 4)
- Minimum Inhibitory Concentration (MIC) (S. pneumoniae ATCC 49619): +++ (+++ = MIC ≦ 4)
- Minimum Inhibitory Concentration (MIC) [7]: >32 mg/L
- Minimum Inhibitory Concentration (MIC) (E. faecalis ATCC 29212): +++ (+++ = MIC ≦ 4)

Structure (SMILES): Cn1cc(NC(=O)c2cc(NC(=O)c3cc(NC(=O)c4ccc(F)cc4F)c[nH]3)cn2C)cc1C(=O)NCCc1ccncc1 [Compound A-7]
- Minimum Inhibitory Concentration (MIC) [1]: +++ (+++ = MIC ≦ 4)
- Minimum Inhibitory Concentration (MIC) [2]: +++ (+++ = MIC ≦ 4)
- Minimum Inhibitory Concentration (MIC) [3]: +++ (+++ = MIC ≦ 4)
- Minimum Inhibitory Concentration (MIC) [4]: +++ (+++ = MIC ≦ 4)
- Minimum Inhibitory Concentration (MIC) [5]: +++ (+++ = MIC ≦ 4)
- Minimum Inhibitory Concentration (MIC) [6]: +++ (+++ = MIC ≦ 4)
- Minimum Inhibitory Concentration (MIC) (S. pneumoniae ATCC 49619): +++ (+++ = MIC ≦ 4)
- Minimum Inhibitory Concentration (MIC) [7]: >32 mg/L
- Minimum Inhibitory Concentration (MIC) (E. faecalis ATCC 29212): +++ (+++ = MIC ≦ 4)

Structure (SMILES): Cn1cc(NC(=O)c2cc(NC(=O)c3ccc(F)cc3F)cn2C)cc1C(=O)NCCN1CCSCC1 [Compound B-11]
- Minimum Inhibitory Concentration (MIC) [1]: +++ (+++ = MIC ≦ 4)
- Minimum Inhibitory Concentration (MIC) [2]: +++ (+++ = MIC ≦ 4)
- Minimum Inhibitory Concentration (MIC) [3]: +++ (+++ = MIC ≦ 4)
- Minimum Inhibitory Concentration (MIC) [4]: +++ (+++ = MIC ≦ 4)
- Minimum Inhibitory Concentration (MIC) [5]: +++ (+++ = MIC ≦ 4)
- Minimum Inhibitory Concentration (MIC) [6]: +++ (+++ = MIC ≦ 4)
- Minimum Inhibitory Concentration (MIC) (S. pneumoniae ATCC 49619): +++ (+++ = MIC ≦ 4)
- Minimum Inhibitory Concentration (MIC) [7]: >32 mg/L
- Minimum Inhibitory Concentration (MIC) (E. faecalis ATCC 29212): +++ (+++ = MIC ≦ 4)

Structure (SMILES): Cc1cc(NC(=O)c2cc(NC(=O)c3cc(NC(=O)c4ccc(Cl)cc4F)c[nH]3)cn2CCN2CCCC2)sn1 [Compound D-10]
- Minimum Inhibitory Concentration (MIC) [1]: +++ (+++ = MIC ≦ 4)
- Minimum Inhibitory Concentration (MIC) [2]: +++ (+++ = MIC ≦ 4)
- Minimum Inhibitory Concentration (MIC) [3]: + (+ = 12 ≦ MIC ≦ 32)
- Minimum Inhibitory Concentration (MIC) [4]: +++ (+++ = MIC ≦ 4)
- Minimum Inhibitory Concentration (MIC) [5]: +++ (+++ = MIC ≦ 4)
- Minimum Inhibitory Concentration (MIC) [6]: +++ (+++ = MIC ≦ 4)
- Minimum Inhibitory Concentration (MIC) (S. pneumoniae ATCC 49619): +++ (+++ = MIC ≦ 4)
- Minimum Inhibitory Concentration (MIC) [7]: ++ (++ = 4 < MIC < 12)
- Minimum Inhibitory Concentration (MIC) (E. faecalis ATCC 29212): +++ (+++ = MIC ≦ 4)

Structure (SMILES): Cn1cc(NC(=O)c2cc(NC(=O)c3cc(NC(=O)c4ccc(F)cc4F)c[nH]3)cn2C)cc1C(=O)NCCN1CCC(F)(F)CC1 [Compound A-12]
- Minimum Inhibitory Concentration (MIC) [1]: +++ (+++ = MIC ≦ 4)
- Minimum Inhibitory Concentration (MIC) [2]: +++ (+++ = MIC ≦ 4)
- Minimum Inhibitory Concentration (MIC) [3]: + (+ = 12 ≦ MIC ≦ 32)
- Minimum Inhibitory Concentration (MIC) [4]: +++ (+++ = MIC ≦ 4)
- Minimum Inhibitory Concentration (MIC) [5]: +++ (+++ = MIC ≦ 4)
- Minimum Inhibitory Concentration (MIC) [6]: +++ (+++ = MIC ≦ 4)
- Minimum Inhibitory Concentration (MIC) (S. pneumoniae ATCC 49619): +++ (+++ = MIC ≦ 4)
- Minimum Inhibitory Concentration (MIC) [7]: >32 mg/L
- Minimum Inhibitory Concentration (MIC) (E. faecalis ATCC 29212): +++ (+++ = MIC ≦ 4)

Structure (SMILES): Cn1cc(NC(=O)c2cc(NC(=O)c3cc(NC(=O)c4ccccc4F)cn3C)cn2C)cc1C(=O)NCCN1CCSCC1 [Compound B-41]
- Minimum Inhibitory Concentration (MIC) [1]: +++ (+++ = MIC ≦ 4)
- Minimum Inhibitory Concentration (MIC) [2]: +++ (+++ = MIC ≦ 4)
- Minimum Inhibitory Concentration (MIC) [3]: +++ (+++ = MIC ≦ 4)
- Minimum Inhibitory Concentration (MIC) [4]: +++ (+++ = MIC ≦ 4)
- Minimum Inhibitory Concentration (MIC) [5]: +++ (+++ = MIC ≦ 4)
- Minimum Inhibitory Concentration (MIC) [6]: +++ (+++ = MIC ≦ 4)
- Minimum Inhibitory Concentration (MIC) (S. pneumoniae ATCC 49619): +++ (+++ = MIC ≦ 4)
- Minimum Inhibitory Concentration (MIC) [7]: >32 mg/L
- Minimum Inhibitory Concentration (MIC) (E. faecalis ATCC 29212): +++ (+++ = MIC ≦ 4)

Structure (SMILES): Cn1cc(NC(=O)c2cc(NC(=O)c3ccc(Cl)cc3F)c[nH]2)cc1C(=O)Nc1cc(C(=O)NCCN2CCCCC2)n(CCCO)c1 [Compound C-9]
- Minimum Inhibitory Concentration (MIC) [1]: +++ (+++ = MIC ≦ 4)
- Minimum Inhibitory Concentration (MIC) [2]: +++ (+++ = MIC ≦ 4)
- Minimum Inhibitory Concentration (MIC) [3]: +++ (+++ = MIC ≦ 4)
- Minimum Inhibitory Concentration (MIC) [4]: +++ (+++ = MIC ≦ 4)
- Minimum Inhibitory Concentration (MIC) [5]: +++ (+++ = MIC ≦ 4)
- Minimum Inhibitory Concentration (MIC) [6]: +++ (+++ = MIC ≦ 4)
- Minimum Inhibitory Concentration (MIC) (S. pneumoniae ATCC 49619): +++ (+++ = MIC ≦ 4)
- Minimum Inhibitory Concentration (MIC) [7]: +++ (+++ = MIC ≦ 4)
- Minimum Inhibitory Concentration (MIC) (E. faecalis ATCC 29212): +++ (+++ = MIC ≦ 4)
